Results reported in ChEMBL document CHEMBL1201862, “PubChem BioAssay data set” (2004).
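How tested: cells in 96-well plates exposed to compound for 48 hours at five concentrations. GI50: concentration for 50% inhibition of growth.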 Activity calls are given as the source filed them. Rule as the data show it: active = GI50 up to about 1.1 µM and inactive = higher.

Assays:
Test in all cases: NCI-60 cell line screen, 48 h
[1] = system: A549
[2] = system: CCRF-CEM
[3] = system: DLD-1
[4] = system: HOP-92
[5] = system: HT-29
[6] = system: IGROV-1
[7] = system: KM-20L2
[8] = system: MOLT-4
[9] = system: NCI-H23
[10] = system: RPMI-8226
[11] = system: SF-295
[12] = system: SK-MEL-2
[13] = system: SNB-19
[14] = system: UACC-62
[15] = system: UO-31
[16] = system: A498
[17] = system: K562

Measured: GI50

O=C1CC2Sc3ccccc3N=C2N1c1ccc(Cl)cc1Cl (stereo not given)
inactive: [1] 83.4 µM | [2] 17.1 µM | [3] 32.7 µM | [4] 30.3 µM | [5] 92 µM | [6] 78.2 µM | [7] > 100 µM | [8] 23.3 µM | [9] 87.7 µM | [10] 49.2 µM | [11] 79.8 µM | [12] 46.6 µM | [13] 77.8 µM | [14] 48.3 µM | [15] 29.9 µM

COC1CC2C3/C(=N/Nc4ccc([N+](=O)[O-])cc4[N+](=O)[O-])CCC2(C)C3C1 (stereo not given)
inactive: [16] > 10 µM | [1] > 100 µM | [3] > 10 µM | [4] > 10 µM | [5] > 10 µM | [6] > 10 µM | [17] 75.5 µM | [7] > 10 µM | [8] 42.3 µM | [9] > 10 µM | [10] 78 µM | [11] > 10 µM | [12] > 10 µM | [13] > 10 µM | [14] > 10 µM | [15] > 10 µM

NCCCNC(=O)c1csc(NC(=O)c2csc(NC(=O)CCCN)n2)n1
inactive: [16] > 100 µM | [1] > 100 µM | [2] > 100 µM | [3] > 100 µM | [4] > 100 µM | [5] > 100 µM | [6] > 100 µM | [17] > 100 µM | [7] > 100 µM | [8] > 100 µM | [9] > 100 µM | [10] > 100 µM | [11] > 100 µM | [12] > 100 µM | [14] > 100 µM | [15] > 100 µM

O=C(NC(=O)c1cn(CCN2CCN(C(=O)NCCCCCCNC(=O)N3CCN(CCn4cc(C(=O)NC(=O)OCc5ccccc5)c(=O)[nH]c4=O)CC3)CC2)c(=O)[nH]c1=O)OCc1ccccc1
inactive: [1] > 100 µM | [2] > 100 µM | [3] > 100 µM | [4] > 100 µM | [5] > 100 µM | [6] > 100 µM | [17] > 100 µM | [7] > 100 µM | [8] > 100 µM | [9] > 100 µM | [10] > 100 µM | [11] > 100 µM | [13] > 100 µM | [14] > 100 µM | [15] > 100 µM

COC(=O)CC1NC(=O)C1C(C)(OC)OC (stereo not given)
inactive: [16] > 100 µM | [1] > 100 µM | [2] > 100 µM | [3] > 100 µM | [5] > 100 µM | [6] > 100 µM | [17] > 100 µM | [7] > 100 µM | [8] > 100 µM | [9] > 100 µM | [10] > 100 µM | [11] > 100 µM | [12] > 100 µM | [13] > 100 µM | [14] > 100 µM | [15] > 100 µM

C1=CC=C2NCCC/N=C3/C=CC=CC=C3NCCC/N=C\2C=C1
inactive: [16] > 100 µM | [1] > 100 µM | [2] > 100 µM | [3] > 100 µM | [4] > 100 µM | [5] > 100 µM | [6] > 100 µM | [17] > 100 µM | [7] > 100 µM | [8] > 100 µM | [10] > 100 µM | [11] > 100 µM | [12] > 100 µM | [13] > 100 µM | [14] > 100 µM | [15] > 100 µM

CC(=O)O/N=C/c1ncccc1OC(C)=O
inactive: [16] > 100 µM | [1] > 100 µM | [2] > 100 µM | [3] > 100 µM | [4] > 100 µM | [5] > 100 µM | [6] > 100 µM | [17] > 100 µM | [7] > 100 µM | [8] > 100 µM | [9] > 100 µM | [11] > 100 µM | [12] > 100 µM | [13] > 100 µM | [14] > 100 µM | [15] > 100 µM

Cc1cc2c(C)n(Cc3ccccc3Cl)nc2c(C(=O)O)c1C
inactive: [1] > 100 µM | [2] > 100 µM | [3] > 100 µM | [4] > 100 µM | [5] > 100 µM | [6] > 100 µM | [7] > 100 µM | [8] > 100 µM | [9] > 100 µM | [10] > 100 µM | [11] > 100 µM | [12] > 100 µM | [13] > 100 µM | [14] > 100 µM | [15] > 100 µM

Cc1cc2c(=O)cc(-c3ccc(Cl)cc3Cl)oc2c(C(=O)O)c1C
inactive: [1] > 100 µM | [2] > 100 µM | [3] > 100 µM | [5] > 100 µM | [6] > 100 µM | [17] > 100 µM | [7] > 100 µM | [8] > 100 µM | [9] > 100 µM | [10] > 100 µM | [11] > 100 µM | [12] > 100 µM | [13] > 100 µM | [14] > 100 µM | [15] > 100 µM
